Earlier results in patent US20240165081A1, “COMPOSITIONS AND METHODS FOR TREATMENT OF INSOMNIA” (priority 2022, published 2024).

Molecular target: adenosine A2A receptor (Homo sapiens, UniProt P29274)
Sequence (P29274 whole entry): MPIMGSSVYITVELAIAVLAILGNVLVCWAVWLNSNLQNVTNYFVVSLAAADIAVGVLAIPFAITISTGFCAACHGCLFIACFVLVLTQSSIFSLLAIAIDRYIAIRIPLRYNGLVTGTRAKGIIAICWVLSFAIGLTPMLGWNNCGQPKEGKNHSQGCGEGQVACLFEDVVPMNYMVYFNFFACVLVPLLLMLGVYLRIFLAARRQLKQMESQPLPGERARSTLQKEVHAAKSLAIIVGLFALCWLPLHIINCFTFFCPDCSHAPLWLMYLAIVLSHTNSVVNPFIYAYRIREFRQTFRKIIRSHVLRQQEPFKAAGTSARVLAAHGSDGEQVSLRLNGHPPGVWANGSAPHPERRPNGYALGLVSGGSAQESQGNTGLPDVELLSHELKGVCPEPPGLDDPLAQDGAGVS

## C=C(C)C1CC=C(C)CC1 [D-limonene, 4-isopropenyl-1-methylcyclohexene]
  binding to the adenosine A2A receptor: found to bind to the adenosine A2A receptor
